# Literature values as cited in patent US5536812A, “Calcitonin analogue and use thereof” (Sanwa Kagaku Kenkyusho Co., Ltd., priority 1994, dated 1996).
# Assays:
# Wister male rat = conditions: standard manufactured by Penisula Lab. Inc., Lot No. 015405
# [1] = analogue of Jap. Pat. Hei 4-59795(A) / EP-A-0 464 549
Substance,Activity of the eel calcitonin standard (Wister male rat) [IU/mg],biological activities compared with native Salmon I calcitonin [1]
eel calcitonin,4500,
salmon I calcitonin-Hse^33 -NH2,,substantially same with the native Salmon I calcitonin
